Measured values taken from article PMC6679371, “Synthesis and Evaluation of Novel Pyrazole Ethandiamide Compounds as Inhibitors of Human THP-1 Monocytic Cell Neurotoxicity” (Cells, 2019).
Entries after “also recorded” stand apart in the source; their conditions may differ.

Legend:
[1] = test system: stimulated human monocytic THP-1 cells; assay: Viability of LPS plus IFN-γ stimulated THP-1 cells (MTT assay); type: cell-based; conditions: 1–100 μM, added 15 min before LPS plus IFN-γ, 24 h
Procedure: (§1) The MTT assay was performed as described by Mosmann and by Hansen et al.. Cell viability was determined by adding MTT to the cell cultures to reach a final concentration of 500 μg mL^−1. Following one h incubation at 37 °C, the dark purple crystals formed by viable cells were dissolved by adding to the wells an equal volume of the extraction buffer containing 20% sodium dodecyl sulfate and 50% N,N-dimethylformamide, pH 4.7. After overnight incubation at 37 °C, 100 μL aliquots of MTT solutions were transferred to a 96-well plate, and a FLUOstar Omega platereader (BMG Labtech, Offenburg, Germany) was used to measure the optical densities at 570 nm. Cell viability in various samples was calculated as percent of the optical density value obtained with cells incubated in fresh cell culture medium only.
(§2) The anti-neurotoxic activity of the compounds was evaluated using a method described previously. Human monocytic THP-1 cells were transferred to 24-well plates in 800 µL aliquots of 5 × 10^5 cells mL^−1 per well. The cells were pre-incubated with varying concentrations of pyrazole derivatives or their DMSO vehicle solution for 15 min before stimulation with a combination of lipopolysaccharide (LPS, 0.5 µg mL^−1) and human interferon-γ (IFN-γ, 150 U mL^−1). […] After 24 h incubation, 400 µL of supernatants from THP-1 cells was transferred to SH-SY5Y cells (seeded 24 h earlier in 24-well plates; 400 µL of 2 × 10^5 cells mL^−1). The viability of THP-1 cells was measured by the MTT assay immediately after the transfer of the supernatants. The effects of THP-1 cell supernatants on SH-SY5Y neuronal cell viability were measured by the MTT assay after 72 h incubation. […] The concentrations of stimuli and incubation times of THP-1 cells with the stimuli were selected in preliminary experiments so that significant partial killing of SH-SY5Y cells was achieved (20–30% viable cells left), which could be a result of the combined action of cytotoxins secreted by THP-1 cells and depletion of nutrients from the cell culture medium by the stimulated THP-1 cells.

[2] = test system: immune-stimulated human THP-1 monocytic cells (toxicity toward SH-SY5Y neuronal cells); assay: Anti-neurotoxic activity: supernatants of compound-treated stimulated THP-1 cells transferred to SH-SY5Y cells (MTT assay); type: cell-based; conditions: for IC50: Homo sapiens, estimated from Figure 4, read-out: IC50 for reducing toxic effect of stimulated THP-1 supernatants on SH-SY5Y cells
Procedure: as §1, §2

[3] = test system: SH-SY5Y cells; parameters: method as in PMID 20609589; conditions: earlier report; cited from earlier work
[4] = test system: SH-SY5Y cells; assay: Neuroprotective activity: compounds added directly to SH-SY5Y cells with stimulated THP-1 supernatants (MTT assay); type: cell-based, human
Procedure: as §1
SH-SY5Y cells were seeded into 24-well plates (400 µL at 2 × 10^5 cells mL^−1). After 24 h incubation, the cell culture medium was replaced with 400 µL of supernatants from THP-1 cells that had been stimulated for 24 h with LPS plus IFN-γ, as described in 2.6. Varying concentrations of the compounds or the DMSO vehicle solution were added directly to SH-SY5Y cells at the time of the supernatant transfer. The viability of SH-SY5Y cells was measured by the MTT assay 72 h later.

[5] = test system: human PC-3 prostate cancer cells; assay: Cytotoxicity of pyrazole derivatives to PC-3 cells (MTT assay); type: cell-based; conditions: 100 μM (highest concentration tested), 48 h
Procedure: as §1
PC-3 prostate cancer cells were transferred to 24-well plates in 500 µL aliquots of 1.5 × 10^5 cells mL^−1 per well. Varying concentrations of the pyrazole derivatives or the 0.5% DMSO vehicle were added to the cells. After 48 h incubation, cell viability was measured by using the MTT assay.

SMILES | melting point [°C] | toxicity to stimulated THP-1 cells (cell viability, MTT) [1] | IC50 [2] [µM] | also measured
N#Cc1cnn(-c2ccccc2)c1NC(=O)C(=O)Nc1c(C#N)cnn1-c1ccccc1 [compound 1] |  |  |  | direct neuroprotective activity [3]: showed this effect
N#Cc1cnn(-c2ccccc2)c1NC(=O)C(=O)N(C1CCCCC1)C1CCCCC1 [2b] | 188 to 190 | None of these six derivatives were toxic | 10 to 50 | 
N#Cc1cnn(-c2ccccc2)c1NC(=O)C(=O)NCCCCCCCCCN [2a] | 108 to 110 | None of these six derivatives were toxic | 50 to 100 | concentrations at which the protective effect was statistically significant ([2]; tested 1–100 μM, Dunnett's post-hoc test): 100 µM

More lines, main results first:

melting point [°C] | SMILES | toxicity to stimulated THP-1 cells (cell viability, MTT) [1] | IC50 [2] [µM] | also measured
258 to 261 | N#Cc1cnn(-c2ccccc2)c1NC(=O)C(=O)Nc1ccc(N)cc1 [2e] | None of these six derivatives were toxic | 10 to 50 | 
250 to 253 | CN(C)C(=O)C(=O)Nc1c(C#N)cnn1-c1ccccc1 [2c] | None of these six derivatives were toxic | 10 to 50 | 
237 to 239 | N#Cc1cnn(-c2ccccc2)c1NC(=O)C(=O)Nc1ccc(O)cc1 [2f] |  |  | 
108 to 110 | C=CCNC(=O)C(=O)Nc1c(C#N)cnn1-c1ccccc1 [2d] | None of these six derivatives were toxic |  | change in SH-SY5Y cell viability, compound added directly ([4]; 100 μM, 72 h): small but significant decrease in SH-SY5Y cell viability; change in PC-3 cell viability [5]: small yet significant increase in cell viability; change in SH-SY5Y cell viability ([2]; 100 μM, supernatant transfer from treated THP-1 cells, 72 h): small but significant decrease in SH-SY5Y cell viability; also recorded: small yet significant reduction of SH-SY5Y cell viability; protective (anti-neurotoxic) effect ([2]; 1–100 μM): no protective effect
139 to 141 | CN(C)CCOC(=O)C(=O)Nc1c(C#N)cnn1-c1ccccc1 [compound 3] | None of these six derivatives were toxic | 10 to 50 | direct neuroprotective effect on SH-SY5Y cells ([4]; 1–100 μM, added at the time of supernatant transfer): neuroprotective effect; viability at 100 µM ([4]; Homo sapiens, SH-SY5Y, 100 μM, 72 h, without compound 20–30%): > 40%
